Laboratory results published in patent publication US9663514B2 (Takeda Pharmaceutical Company Limited, priority 2011, dated 2017).

The compounds below were run against T1, SYK (Homo sapiens, UniProt P43405) (assay: SYK inhibition: in vitro assay of SYK-mediated phosphorylation of FAM-labeled substrate (Caliper LC-3000)). Conditions: SYK kinase domain (residues 356-635); 2.4 nM SYK and 45 μM ATP, 3 μM 5FAM-KKKKEEIYFFFG-NH2, RT 60 min, pH 7.3; pIC50 = −log(IC50), IC50 molar.
T1 construct: The SYK kinase domain (residues 356-635) is amplified via PCR; made in house; host or cells: Sf9 insect cells (baculovirus, pFastBac1)
Assay type: biochemical
Protocol: The ability of compounds to inhibit SYK activity may be assessed using a variety of methods, including in vitro and in vivo assays. The following in vitro assay measures a test compound's ability to inhibit SYK-mediated phosphorylation of a FAM-labeled SYK-specific substrate (5FAM-KKKKEEIYFFFG-NH2).
SYK protein is prepared from cDNA encoding human spleen tyrosine kinase and is expressed in insect cells using a baculovirus expression vector. The cDNA (IMAGE: 3542895) is purchased from Open Biosystems. The SYK kinase domain (residues 356-635) is amplified via PCR and cloned into plasmid pFastBacl (Invitrogen) at BamHI/XbaI sites. Recombinant plasmid encoding Met-Ala-Lys-SYK(356-635)-HHHHHH is sequenced and transformed into E. coli DH10Bac strain. The recombinant bacmid DNA is isolated and transfected into Sf9 insect cells. Recombinant virus is harvested 72 h after transfection. High titer viral stock is prepared by infecting Sf9 cells at a multiplicity of infection (MOI) of approximately 0.01. A suspension of Sf9 cells (10 L) is infected with recombinant virus (MOI=5) and is incubated in a Wave Bioreactor (GE-Healthcare) for 48 h. The cells are harvested and stored at −80° C.
To purify the expressed protein, the frozen Sf9 cells (10 L) are broken into small (<1 cm) particles and suspended in a lysis buffer (300 mL) containing 20 mM Tris (pH 7.6), 0.25 mM TCEP, 100 mM NaCl, 5% glycerol and a protease inhibitor. The suspension is stirred at RT until completely thawed, lysed an additional 2-4 min on a rotary blade homogenizer, and then centrifuged at 4200 g for 1 h. Following centrifugation, the supernatant is poured through cheese cloth and combined with a nickel chelating resin (Probond Resin™, Invitrogen) which is pre-equilibrated in a wash buffer containing 10 mM Tris (pH 7.6), 0.25 mM TCEP, 300 mM NaCl, 5% glycerol, and 20 mM imidazole. The mixture is agitated for 3 h in a cold room and then centrifuged at 900 g for 10 min. The resin is dispersed in wash buffer (50 mL), centrifuged for 10 min at 900 g, re-dispersed in a small amount of wash buffer (5 mL), and then pour into a disposable Poly-Prep chromatography column, through which wash buffer is passed by gravity until no protein is observed in coomassie buffer (about 120 mL of wash buffer). An elution buffer (30 mL) containing 10 mM HEPES (pH 7.4), 150 mM NaCl, 10% glycerol, 5 mM DTT, and 400 mM imidazole is used to elute the SYK protein from the resin. The eluate is concentrated (5 mL) and further purified on a Superdex 200 column (1.2 mL/min for 160 min, 10 mM HEPES (pH 7.4), 10 mM NaCl, 10 mM MgCl, 0.1 mM EDTA, and 0.25 mM TCEP). The chromatographed fractions are run on SDS-PAGE and the requisite fractions are pooled and concentrated. Final delivery buffer is 10 mM HEPES (pH 7.4), 10 mM Methione, 150 mM NaCl, 10% glycerol, 5 mM DTT.
SYK inhibition is determined using a black 384 well plate format in buffer containing 50 mM HEPES, 10 mM NaCl, 10 mM MgCl2, 0.2 mM EDTA, 0.01% EDA (Brij®35), 1 mM DTT, and 0.1 mg/ml BSA at pH 7.3. Each test compound is prepared in DMSO using 2-fold serial dilutions for 11 data points, which are added to the buffer so that each dilution contains 3% DMSO. To each well is added 2 μL of 3 μM SFAM-KKKKEEIYFFFG-NH2 (in buffer), 2 μL of diluted test compound (3% DMSO in buffer), and 2 μL of 2.4 nM SYK and 45 μM ATP (in buffer). The reaction mixture is incubated at RT for 60 min, and quenched by adding 50 mM Hepes, 30 mM EDTA, 0.1% Triton X-100 (pH 7.3). To quantify the fluorescent-labeled substrate and product following reaction, the test plate is loaded on a Caliper LC-3000, which measures percent of conversion by microfluidic-based separation. Corresponding IC50 values are calculated by non-linear curve fitting of the compound concentrations and percent of inhibition to the standard IC50 equation and reported as pIC50, i.e., −log(IC50), where IC50 is molar concentration.

Row | SMILES | IC50
1 | N[C@H]1COCC[C@H]1Nc1nc(CCc2ccc(Cl)cc2)c2c(c1F)CNC2=O [Example 49, 6-((3R,4R)-3-Aminotetrahydro-2H-pyran-4-ylamino)-4-(4-chlorophenethyl)-7-fluoro-1H-pyrrolo[3,4-c]pyridin-3(2H)-one] | 63.1 nM
2 | C[C@H]1NC(=O)c2c(-c3cnn4ccc(F)cc34)nc(N[C@@H]3CCCC[C@@H]3N)c(F)c21 [Example 52, (R)-6-(((1R,2S)-2-Aminocyclohexyl)amino)-7-fluoro-4-(5-fluoropyrazolo[1,5-a]pyridin-3-yl)-1-methyl-1H-pyrrolo[3,4-c]pyridin-3(2H)-one] | 39.8 nM
3 | C[C@@H]1NC(=O)c2c(-c3cnn4ccc(F)cc34)nc(N[C@@H]3CCCC[C@@H]3N)c(F)c21 [Example 53, (S)-6-(((1R,2S)-2-Aminocyclohexyl)amino)-7-fluoro-4-(5-fluoropyrazolo[1,5-a]pyridin-3-yl)-1-methyl-1H-pyrrolo[3,4-c]pyridin-3(2H)-one] | 398 nM
4 | Cc1ccn2ncc(-c3nc(N[C@@H]4CCCC[C@@H]4N)c(F)c4c3C(=O)N[C@@H]4C)c2c1 [Example 54, (R)-6-(((1R,2S)-2-Aminocyclohexyl)amino)-7-fluoro-1-methyl-4-(5-methylpyrazolo[1,5-a]pyridin-3-yl)-1H-pyrrolo[3,4-c]pyridin-3(2H)-one] | 50.1 nM
5 | Cc1ccn2ncc(-c3nc(N[C@@H]4CCCC[C@@H]4N)c(F)c4c3C(=O)N[C@H]4C)c2c1 [Example 55, (S)-6-(((1R,2S)-2-Aminocyclohexyl)amino)-7-fluoro-1-methyl-4-(5-methylpyrazolo[1,5-a]pyridin-3-yl)-1H-pyrrolo[3,4-c]pyridin-3(2H)-one] | 251 nM
6 | Cc1cc(-c2nc(N[C@@H]3CCOC[C@@H]3N)c(F)c3c2C(=O)N[C@H]3C)sn1 [Example 57, (S)-6-(((3R,4R)-3-Aminotetrahydro-2H-pyran-4-yl)amino)-7-fluoro-1-methyl-4-(3-methylisothiazol-5-yl)-1H-pyrrolo[3,4-c]pyridin-3(2H)-one] | 100 nM

Stronger by IC50, values ahead:

Row | IC50 | SMILES
7 | 15.8 nM | Cc1cc(-c2nc(N[C@@H]3CCOC[C@@H]3N)c(F)c3c2C(=O)N[C@@H]3C)sn1 [Example 56, (R)-6-(((3R,4R)-3-Aminotetrahydro-2H-pyran-4-yl)amino)-7-fluoro-1-methyl-4-(3-methylisothiazol-5-yl)-1H-pyrrolo[3,4-c]pyridin-3(2H)-one]
8 | 12.6 nM | Cc1ccn2ncc(-c3nc(N[C@@H]4CCOC[C@@H]4N)c(F)c4c3C(=O)NC4)c2c1 [Example 58, 6-(((3R,4R)-3-Aminotetrahydro-2H-pyran-4-yl)amino)-7-fluoro-4-(5-methylpyrazolo[1,5-a]pyridin-3-yl)-1H-pyrrolo[3,4-c]pyridin-3 (2H)-one]
9 | 2.51 nM | Cc1ccn2ncc(-c3nc(N[C@@H]4CCCC[C@@H]4N)c(F)c4c3C(=O)NC4)c2c1 [Example 59, 6-(((1R,2S)-2-Aminocyclohexyl)amino)-7-fluoro-4-(5-methylpyrazolo[1,5-a]pyridin-3-yl)-1H-pyrrolo[3,4-c]pyridin-3(2H)-one]
10 | 2 nM | N[C@H]1CCCC[C@H]1Nc1nc(/C=C/c2ccc(Cl)cc2)c2c(c1F)CNC2=O [Example 50, 6-((1R,2S)-2-Aminocyclohexylamino)-4-(4-chlorostyryl)-7-fluoro-1H-pyrrolo[3,4-c]pyridin-3(2H)-one]
11 | 2 nM | N[C@H]1COCC[C@H]1Nc1nc(/C=C/c2ccc(Cl)cc2)c2c(c1F)CNC2=O [Example 51]
